Source: PMC7217150, “Synthesis, Modification, and Biological Evaluation of a Library of Novel Water‐Soluble Thiopyridone‐Based Organometallic Complexes and Their Unexpected (Biological) Behavior” (Chemistry (Weinheim an Der Bergstrasse, Germany), 2020)

Legend:
Assay type in all cases: cell-based, human
[1] = system: CH1/PA‐1; test: Cell cycle distribution, flow cytometry with propidium iodide; settings: for Cell cycle distribution G1, % / Cell cycle distribution G2/M, % / Cell cycle distribution S, %: 24 h, mean ± SD; for Relative change in cell cycle distribution G1, % / Relative change in cell cycle distribution G2/M, % / Relative change in cell cycle distribution S, %: difference to untreated control
Description: (§1) The influence of two ligands, as well as seven complexes on cell cycle distribution was tested in two of the cancer cell lines (SW480, CH1/PA‐1) by means of flow cytometry. The cell cycle distribution (G1, S, G2/M phase in %; Table S37) was investigated upon DNA staining with propidium iodide.
(§2) CH1/PA‐1 and SW480 cells were harvested by trypsinization, 8×10^4 and 1.2×10^5 cells per well were seeded into 12‐well plates, respectively. The cells were allowed to attach and resume proliferation for 24 h after the seeding. […] After continuous exposure for 24 h at 37 °C and under 5 % CO2, the cells were harvested by trypsinization and centrifuged at 300 g for 3 min. The cells were washed with PBS (1 mL) and resuspended in propidium iodine (PI) containing HSF buffer (600 μL; 0.1 % Triton X‐100, 0.1 % sodium citrate, 50 μg mL^−1 PI in PBS). After incubation overnight at 4 °C in the dark, 5×10^3 cells were measured by flow cytometry with a Millipore Guava easyCyte 8HT instrument (Luminex, USA). Data were evaluated by means of FlowJo software (Tree Star) using Watson Pragmatic algorithms.60 The fitting of the curve was chosen to keep the root mean square error between 1.0 and 2.0, alongside with good fitting visual model.

[2] = system: SW480; test: as above; settings: for Cell cycle distribution G1, % / Cell cycle distribution G2/M, % / Cell cycle distribution S, %: 24 h, mean ± SD; for Relative change in cell cycle distribution G1, % / Relative change in cell cycle distribution G2/M, % / Relative change in cell cycle distribution S, %: difference to untreated control
Description: as §1, §2

[3] = system: CH1/PA‐1; test: MTT cytotoxicity assay, monolayer culture; settings: CH1/PA‐1, MTT assay, exposure time 96 h, means ± SDs
From the text: (§3) A549 (non‐small cell lung carcinoma), SW480 and HCT‐116 (both colon carcinoma) were kindly provided by Brigitte Marian, Institute of Cancer Research, Department of Medicine I, Medical University of Vienna, Austria. The cell line CH1/PA‐1 (ovarian teratocarcinoma) was kindly provided by Lloyd R. Kelland (CRC Centre for Cancer Therapeutics, Institute of Cancer Research, Sutton, UK). All cell culture media (including supplements) and reagents were obtained from Sigma–Aldrich, and all plasticware from StarLab, unless indicated otherwise.

[4] = system: SW480; test: MTT cytotoxicity assay, monolayer culture; settings: SW480, MTT assay, exposure time 96 h, means ± SDs
From the text: as §3

[5] = system: A549; test: MTT cytotoxicity assay, monolayer culture; settings: exposure time 96 h, means ± SDs
From the text: as §3

Structure (SMILES): CC1=C2[O][Rh+]([Cl])[S]=C2C=CN1c1cccc2ccccc12.Cc1c(C)c(C)[c-](C)c1C [Compound 5 d, Chlorido[1‐(naphthalene‐1‐yl)‐2‐methyl‐3‐oxo‐κO‐pyridine‐4(1H)‐thionato‐κS](η^5‐1,2,3,4,5‐pentamethylcyclopentadienyl)rhodium(III)]
- Cell cycle distribution G1, % ([1]; CH1/PA-1, 1.25 µM): 40 ± 10%
- Cell cycle distribution G2/M, % ([1]; CH1/PA-1, 1.25 µM): 16 ± 9%
- Cell cycle distribution S, % ([1]; CH1/PA-1, 1.25 µM): 44 ± 3%
- Relative change in cell cycle distribution G1, % ([1]; CH1/PA-1, 1.25 µM): 0%
- Relative change in cell cycle distribution G2/M, % ([1]; CH1/PA-1, 1.25 µM): -8%
- Relative change in cell cycle distribution S, % ([1]; CH1/PA-1, 1.25 µM): 8%
- Cell cycle distribution G1, % ([1]; CH1/PA-1, 2.5 µM): 38 ± 5%
- Cell cycle distribution G2/M, % ([1]; CH1/PA-1, 2.5 µM): 27 ± 8%
- Cell cycle distribution S, % ([1]; CH1/PA-1, 2.5 µM): 36 ± 7%
- Relative change in cell cycle distribution G1, % ([1]; CH1/PA-1, 2.5 µM): -2%
- Relative change in cell cycle distribution G2/M, % ([1]; CH1/PA-1, 2.5 µM): 3%
- Relative change in cell cycle distribution S, % ([1]; CH1/PA-1, 2.5 µM): 0%
- Cell cycle distribution G1, % ([1]; CH1/PA-1, 5 µM): 39 ± 6%
- Cell cycle distribution G2/M, % ([1]; CH1/PA-1, 5 µM): 22 ± 5%
- Cell cycle distribution S, % ([1]; CH1/PA-1, 5 µM): 40 ± 2%
- Relative change in cell cycle distribution G1, % ([1]; CH1/PA-1, 5 µM): -1%
- Relative change in cell cycle distribution G2/M, % ([1]; CH1/PA-1, 5 µM): -2%
- Relative change in cell cycle distribution S, % ([1]; CH1/PA-1, 5 µM): 4%
- Cell cycle distribution G1, % ([2]; SW480, 2.5 µM): 38 ± 12%
- Cell cycle distribution G2/M, % ([2]; SW480, 2.5 µM): 22 ± 8%
- Cell cycle distribution S, % ([2]; SW480, 2.5 µM): 40 ± 3%
- Relative change in cell cycle distribution G1, % ([2]; SW480, 2.5 µM): -10%
- Relative change in cell cycle distribution G2/M, % ([2]; SW480, 2.5 µM): 3%
- Relative change in cell cycle distribution S, % ([2]; SW480, 2.5 µM): 7%
- Cell cycle distribution G1, % ([2]; SW480, 5 µM): 43 ± 10%
- Cell cycle distribution G2/M, % ([2]; SW480, 5 µM): 20 ± 3%
- Cell cycle distribution S, % ([2]; SW480, 5 µM): 37 ± 8%
- Relative change in cell cycle distribution G1, % ([2]; SW480, 5 µM): -5%
- Relative change in cell cycle distribution G2/M, % ([2]; SW480, 5 µM): 1%
- Relative change in cell cycle distribution S, % ([2]; SW480, 5 µM): 4%
- Cell cycle distribution G1, % ([2]; SW480, 10 µM): 48 ± 10%
- Cell cycle distribution G2/M, % ([2]; SW480, 10 µM): 18 ± 1%
- Cell cycle distribution S, % ([2]; SW480, 10 µM): 34 ± 9%
- Relative change in cell cycle distribution G1, % ([2]; SW480, 10 µM): 0%
- Relative change in cell cycle distribution G2/M, % ([2]; SW480, 10 µM): -1%
- Relative change in cell cycle distribution S, % ([2]; SW480, 10 µM): 1%
- IC50 [3]: 480 ± 60 nM
- IC50 [4]: 1000 ± 100 nM
- IC50 [5]: 1300 ± 200 nM

Structure (SMILES): Cc1c(O)c(=S)ccn1C [Compound 2 a, 3‐hydroxy‐1,2‐dimethylpyridine‐4(1H)‐thione]
- Cell cycle distribution G1, % ([1]; CH1/PA-1, 5 µM): 33 ± 4%
- Cell cycle distribution G2/M, % ([1]; CH1/PA-1, 5 µM): 27 ± 5%
- Cell cycle distribution S, % ([1]; CH1/PA-1, 5 µM): 40 ± 3%
- Relative change in cell cycle distribution G1, % ([1]; CH1/PA-1, 5 µM): -7%
- Relative change in cell cycle distribution G2/M, % ([1]; CH1/PA-1, 5 µM): 3%
- Relative change in cell cycle distribution S, % ([1]; CH1/PA-1, 5 µM): 4%
- Cell cycle distribution G1, % ([1]; CH1/PA-1, 10 µM): 33 ± 4%
- Cell cycle distribution G2/M, % ([1]; CH1/PA-1, 10 µM): 26 ± 6%
- Cell cycle distribution S, % ([1]; CH1/PA-1, 10 µM): 41 ± 8%
- Relative change in cell cycle distribution G1, % ([1]; CH1/PA-1, 10 µM): -7%
- Relative change in cell cycle distribution G2/M, % ([1]; CH1/PA-1, 10 µM): 2%
- Relative change in cell cycle distribution S, % ([1]; CH1/PA-1, 10 µM): 5%
- Cell cycle distribution G1, % ([1]; CH1/PA-1, 20 µM): 35 ± 3%
- Cell cycle distribution G2/M, % ([1]; CH1/PA-1, 20 µM): 28 ± 4%
- Cell cycle distribution S, % ([1]; CH1/PA-1, 20 µM): 37 ± 9%
- Relative change in cell cycle distribution G1, % ([1]; CH1/PA-1, 20 µM): -5%
- Relative change in cell cycle distribution G2/M, % ([1]; CH1/PA-1, 20 µM): 4%
- Relative change in cell cycle distribution S, % ([1]; CH1/PA-1, 20 µM): 1%
- Cell cycle distribution G1, % ([2]; SW480, 5 µM): 45 ± 1%
- Cell cycle distribution G2/M, % ([2]; SW480, 5 µM): 23 ± 0%
- Cell cycle distribution S, % ([2]; SW480, 5 µM): 32 ± 2%
- Relative change in cell cycle distribution G1, % ([2]; SW480, 5 µM): -3%
- Relative change in cell cycle distribution G2/M, % ([2]; SW480, 5 µM): 4%
- Relative change in cell cycle distribution S, % ([2]; SW480, 5 µM): -1%
- Cell cycle distribution G1, % ([2]; SW480, 10 µM): 41 ± 1%
- Cell cycle distribution G2/M, % ([2]; SW480, 10 µM): 24 ± 1%
- Cell cycle distribution S, % ([2]; SW480, 10 µM): 35 ± 2%
- Relative change in cell cycle distribution G1, % ([2]; SW480, 10 µM): -7%
- Relative change in cell cycle distribution G2/M, % ([2]; SW480, 10 µM): 5%
- Relative change in cell cycle distribution S, % ([2]; SW480, 10 µM): 2%
- Cell cycle distribution G1, % ([2]; SW480, 20 µM): 44 ± 3%
- Cell cycle distribution G2/M, % ([2]; SW480, 20 µM): 22 ± 2%
- Cell cycle distribution S, % ([2]; SW480, 20 µM): 33 ± 2%
- Relative change in cell cycle distribution G1, % ([2]; SW480, 20 µM): -4%
- Relative change in cell cycle distribution G2/M, % ([2]; SW480, 20 µM): 3%
- Relative change in cell cycle distribution S, % ([2]; SW480, 20 µM): 0%
- IC50 ([3]; Homo sapiens): 15000 ± 1000 nM
- IC50 ([4]; Homo sapiens): 3200 ± 300 nM
- IC50 ([5]; Homo sapiens): 66000 ± 6000 nM
